Experimental data reported in PubChem BioAssay (NCI).
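Protocol summary: plate cells (96-well), add compound at 5 concentrations, incubate 48 h, interpolate endpoints linearly. At the GI50, growth is halved. TGI is the concentration that stops growth completely.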

Tests used:
Test in all cases: growth of human tumour cells (NCI), 48 h
NCI-H460 lung = test system: NCI-H460 lung
ACHN renal = test system: ACHN renal
RXF 393 renal = test system: RXF 393 renal
HCT-116 colon = test system: HCT-116 colon
UACC-257 melanoma = test system: UACC-257 melanoma
MDA-MB-231 breast = test system: MDA-MB-231 breast
EKVX NSCLC = test system: EKVX NSCLC
HS 578T breast = test system: HS 578T breast
MOLT-4 leukemia = test system: MOLT-4 leukemia
K-562 leukemia = test system: K-562 leukemia
SR leukemia = test system: SR leukemia
SNB-19 CNS = test system: SNB-19 CNS
SW-620 colon = test system: SW-620 colon
MCF7 breast = test system: MCF7 breast
KM12 colon = test system: KM12 colon
NCI-H226 lung = test system: NCI-H226 lung
SK-MEL-5 melanoma = test system: SK-MEL-5 melanoma
SK-MEL-2 melanoma = test system: SK-MEL-2 melanoma
HOP-62 NSCLC = test system: HOP-62 NSCLC
RPMI-8226 leukemia = test system: RPMI-8226 leukemia
SK-OV-3 ovarian = test system: SK-OV-3 ovarian
UACC-62 melanoma = test system: UACC-62 melanoma
MDA-MB-468 breast = test system: MDA-MB-468 breast
OVCAR-3 ovarian = test system: OVCAR-3 ovarian
CAKI-1 renal = test system: CAKI-1 renal
DU-145 prostate = test system: DU-145 prostate
A498 renal = test system: A498 renal
HCC-2998 colon = test system: HCC-2998 colon
HT29 colon = test system: HT29 colon
SF-539 CNS = test system: SF-539 CNS

For O=C(Cn1c(-c2ccccc2)nc2ccccc21)N=Nc1c(O)[nH]c2ccc(Cl)cc12, which GI50 (NCI-H460 lung) is on record?
Its GI50 is 15.4 µM.

What about the TGI (NCI-H460 lung) of the same molecule?
Its TGI is 33 µM.

What about the GI50 (ACHN renal) of the same molecule?
The GI50 was 16 µM.

What about the TGI (ACHN renal) of the same molecule?
Its TGI is 34 µM.

And the GI50 (RXF 393 renal)?
Its GI50 is 4.99 µM.

What about the TGI (RXF 393 renal) of the same molecule?
The TGI was 18.6 µM.

What about the GI50 (HCT-116 colon) of the same molecule?
Its GI50 is 10 µM.

What about the TGI (HCT-116 colon) of the same molecule?
Its TGI is 29.3 µM.

What about the GI50 (UACC-257 melanoma) of the same molecule?
The GI50 was 14.1 µM.

What about the TGI (UACC-257 melanoma) of the same molecule?
The TGI was 28.6 µM.

What about the GI50 (MDA-MB-231 breast) of the same molecule?
The GI50 was 11.9 µM.

What about the TGI (MDA-MB-231 breast) of the same molecule?
Its TGI is 24.9 µM.

And the GI50 (EKVX NSCLC)?
Its GI50 is 11 µM.

And the TGI (EKVX NSCLC)?
The TGI was 25.6 µM.

What about the GI50 (HS 578T breast) of the same molecule?
The GI50 was 16.5 µM.

What about the TGI (HS 578T breast) of the same molecule?
The TGI was 49.6 µM.

What about the GI50 (MOLT-4 leukemia) of the same molecule?
The GI50 was 6.41 µM.

And the TGI (MOLT-4 leukemia)?
Its TGI is greater than 100 µM.

And the GI50 (K-562 leukemia)?
The GI50 was 6.91 µM.

What about the TGI (K-562 leukemia) of the same molecule?
The TGI was greater than 100 µM.

And the GI50 (SR leukemia)?
The GI50 was 8.56 µM.

What about the TGI (SR leukemia) of the same molecule?
Its TGI is greater than 100 µM.

And the GI50 (SNB-19 CNS)?
Its GI50 is 16.7 µM.

And the TGI (SNB-19 CNS)?
The TGI was 33.7 µM.

What about the GI50 (SW-620 colon) of the same molecule?
Its GI50 is 15.5 µM.

What about the TGI (SW-620 colon) of the same molecule?
Its TGI is 37.7 µM.

What about the GI50 (MCF7 breast) of the same molecule?
Its GI50 is 10.9 µM.

And the TGI (MCF7 breast)?
The TGI was 25.2 µM.

And the GI50 (KM12 colon)?
Its GI50 is 19.2 µM.

And the TGI (KM12 colon)?
The TGI was 62.2 µM.

What about the GI50 (NCI-H226 lung) of the same molecule?
The GI50 was 12.1 µM.

And the TGI (NCI-H226 lung)?
Its TGI is 30.2 µM.

What about the GI50 (SK-MEL-5 melanoma) of the same molecule?
Its GI50 is 14.6 µM.

What about the TGI (SK-MEL-5 melanoma) of the same molecule?
Its TGI is 31.3 µM.

What about the GI50 (SK-MEL-2 melanoma) of the same molecule?
The GI50 was 17.4 µM.

What about the TGI (SK-MEL-2 melanoma) of the same molecule?
The TGI was 36.5 µM.

What about the GI50 (HOP-62 NSCLC) of the same molecule?
Its GI50 is 17.2 µM.

What about the TGI (HOP-62 NSCLC) of the same molecule?
Its TGI is 37.7 µM.

What about the GI50 (RPMI-8226 leukemia) of the same molecule?
Its GI50 is 20.5 µM.

And the TGI (RPMI-8226 leukemia)?
Its TGI is greater than 100 µM.

And the GI50 (SK-OV-3 ovarian)?
Its GI50 is 19.3 µM.

And the TGI (SK-OV-3 ovarian)?
The TGI was 38.2 µM.

And the GI50 (UACC-62 melanoma)?
The GI50 was 12.4 µM.

What about the TGI (UACC-62 melanoma) of the same molecule?
The TGI was 25.5 µM.

And the GI50 (MDA-MB-468 breast)?
The GI50 was 5.77 µM.

And the TGI (MDA-MB-468 breast)?
The TGI was 18.9 µM.

What about the GI50 (OVCAR-3 ovarian) of the same molecule?
Its GI50 is 16.1 µM.

And the TGI (OVCAR-3 ovarian)?
Its TGI is 37.2 µM.

What about the GI50 (CAKI-1 renal) of the same molecule?
Its GI50 is 13.5 µM.

And the TGI (CAKI-1 renal)?
The TGI was 27 µM.

And the GI50 (DU-145 prostate)?
The GI50 was 18.4 µM.

What about the TGI (DU-145 prostate) of the same molecule?
Its TGI is 40.2 µM.

What about the GI50 (A498 renal) of the same molecule?
Its GI50 is 13.6 µM.

And the TGI (A498 renal)?
The TGI was 27.3 µM.

And the GI50 (HCC-2998 colon)?
Its GI50 is 13.4 µM.

What about the TGI (HCC-2998 colon) of the same molecule?
The TGI was 27.5 µM.

And the GI50 (HT29 colon)?
Its GI50 is 14.7 µM.

What about the TGI (HT29 colon) of the same molecule?
The TGI was 30.7 µM.

What about the GI50 (SF-539 CNS) of the same molecule?
The GI50 was 14.7 µM.
